The values that follow come from PubChem BioAssay (NCI).

Some test systems named below: SR leukemia; HCT-116 colon; KM12 colon; MOLT-4 leukemia; BT-549 breast; HOP-62 NSCLC; U251 CNS; OVCAR-3 ovarian; SNB-19 CNS; SK-MEL-28 melanoma.
Common to all, as to test: NCI anticancer screen, dose series, 48 h

The structures appear in SMILES notation.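 The compound was tested at five concentrations on cells cultured in 96-well plates, with a 48-hour exposure period. The concentration for full growth arrest is given as TGI.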 Bounds are passed on as bounds.

Take `O=S1(=O)NNC(=NCc2ccc(F)cc2)c2ccccc21`: the TGI in the test with SR leukemia was over 68.8 µM; in the test on HCT-116 colon, over 100 µM; in the test with KM12 colon, over 100 µM; with MOLT-4 leukemia, over 70.8 µM; with BT-549 breast it was over 100 µM; in the test on HOP-62 NSCLC, over 100 µM. Also, the TGI in the test on U251 CNS is over 83.4 µM; with OVCAR-3 ovarian, over 100 µM; in the test with SNB-19 CNS, over 100 µM; in the test with SK-MEL-28 melanoma, over 100 µM.

As to `OC(CC(c1ccccc1)c1ccc(Cl)cc1)c1ccc(Cl)cc1` (stereo not given), the TGI was 73.5 µM in the test on SR leukemia; over 100 µM in the test on HCT-116 colon; over 100 µM with KM12 colon; over 100 µM in the test on MOLT-4 leukemia; over 100 µM with BT-549 breast; 91.4 µM with HOP-62 NSCLC. Besides, the TGI was over 100 µM with U251 CNS, 81.6 µM in the test on OVCAR-3 ovarian, over 100 µM in the test with SNB-19 CNS and over 100 µM in the test with SK-MEL-28 melanoma.

On to `Cc1cs/c(=N\C(P(=O)(O)O)P(=O)(O)O)n1C`, for which the TGI in the test with SR leukemia, in the test with HCT-116 colon, with KM12 colon, in the test on MOLT-4 leukemia, in the test with BT-549 breast and in the test on HOP-62 NSCLC was over 100 µM in each case. In addition, the TGI in the test on U251 CNS, with OVCAR-3 ovarian, in the test with SNB-19 CNS and in the test on SK-MEL-28 melanoma was over 100 µM each time.
